Experimental data taken from patent publication US12611387B2, “Compound and composition for inducing neuroprotection” (REST THERAPEUTICS, priority 2020, dated 2026).

Columns and labels:
[1] = test system: Aβ25-35 oligomer-intoxicated mice; assay: Y-maze test, symptomatic treatment; format: in vivo; settings: doses 0.1; 0.3; 1.0; 3 and 10 mg/Kg i.p., symptomatic design
Experimental: The test compounds were tested for their ability to decrease the cognitive symptoms of Aβ25-35 oligomer-induced neurodegeneration, i.e. their ability to provide symptomatic anti-amnestic treatment (FIGS. 1A and 1B). In brief, to test the symptomatic effect of the test compounds, they were administered 8 days after the icy injection of the Aβ25-35 oligomers, 30 minutes before the YMT and PAT memory tests were conducted or 30 minutes before the test, but after the training session, in the case of the MWT or ORT (FIG. 1A). […]
The spontaneous alternation test was used to assess spatial working memory (very short-term memory) in rodents. […] The mouse's entries into each arm, including the arm at whose end it was placed, are recorded. […] The number of maximum alternations is thus the total number of entries into each arm minus 2 and the percentage of alternation was calculated according to the formula: % Alt=number of actual alternations/maximum number of alterations×100
The parameters measured included the percentage of alternations (memory index) and the total number of entries into the arms of the maze (exploration index, Maurice et al., 1994, 1996; Meunier et al., 2006, 2013; Villard et al., 2009, 2011). […]

[2] = test system: Aβ25-35 oligomer-intoxicated mice; assay: Passive avoidance test, symptomatic treatment; format: in vivo; settings: symptomatic design; for improvement in cognitive impairment in the passive avoidance test, effective doses: doses 0.1, 0.3, 1.0, 3 and 10 mg/Kg i.p.; for aggravating effect on amnestic symptoms in the passive avoidance test: intoxicated mice, memantine at 10 mg/Kg
Experimental: The test compounds were tested for their ability to decrease the cognitive symptoms of Aβ25-35 oligomer-induced neurodegeneration, i.e. their ability to provide symptomatic anti-amnestic treatment (FIGS. 1A and 1B). In brief, to test the symptomatic effect of the test compounds, they were administered 8 days after the icy injection of the Aβ25-35 oligomers, 30 minutes before the YMT and PAT memory tests were conducted or 30 minutes before the test, but after the training session, in the case of the MWT or ORT (FIG. 1A). The Hamlet Test® (FIG. 1B) involves a 2-week training session (4 hr/day) followed by a test (max. 10 min) under water deprivation conditions and under normal conditions; the Aβ25-35 peptide is injected after this first test. After one week, the compounds are administered and a second test under water deprivation conditions and under normal conditions is performed 30 min after injection. This test measures spatial-temporal disorientation, a major warning sign in Alzheimer's disease (Crouzier et al., 2018).
This test measures non-spatial (contextual) long-term memory. The apparatus used for this test was a box with two compartments (15×20×15 cm high), one illuminated with white PVC walls and the other in the dark with black PVC walls and a grid floor. A guillotine door separated the compartments. A 60 W lamp was positioned 40 cm above the box and illuminated the white compartment. Electric shocks (0.3 mA for 3 s) could be delivered to the grid floor using a generator (Lafayette Instruments, Lafayette, USA). The test comprised a training session and a test session. The guillotine door was closed during the training session. Each mouse was placed in the white compartment. After 5 seconds, the door was raised. When the mouse entered the darkened compartment and placed all four feet in contact with the grid floor, the door was closed and the electric shocks were delivered for 3 seconds. The time taken by the mouse to re-enter the darkened compartment (STL-Tg) and the number of vocalizations were recorded. The test session was conducted 24 hours after the training session. Each mouse was placed back into the illuminated white compartment. After 5 s the door was raised, the step-through latency (STL-R), i.e. the time it took the mouse to enter the darkened compartment, was measured. The maximum duration was 300 s. Mice with a STL-Tg>30 s or a STL-Tg and a STL-R<10 s were not considered for the test. The attrition rate was routinely 5% (Meunier et al., 2006, 2013; Villard et al., 2009, 2011). A mouse with impaired memory abilities will have a lower STL-R than a mouse with normal abilities. […]

[3] = test system: Bax and Bcl-2; assay: Bax and Bcl-2 ELISA in hippocampus, Aβ25-35 oligomer neuroprotection design; format: in vivo, mice; settings: 0.3 mg/Kg; for Bax protein levels in the hippocampus: compared to the intoxicated, untreated group (not shown)
Experimental: The neuroprotective effect of the compounds, i.e. the ability thereof to protect cells from Aβ25-35 oligomer neurotoxicity and neurodegeneration, is also tested (FIG. 10). The test compounds are thus administered on the same day as the injection of the Aβ25-35 oligomers and are continued to be administered on a daily basis up to day 7 after the injection of the oligomers, at which time the mice are subjected to the YMT, PAT, MWT or ORT. The brain's anatomy is analysed and neuronal cells are counted by immunohistochemistry on mice sacrificed at D13. The biochemical analyses for the quantification of markers of oxidative stress and apoptosis were carried out at D16 on a group of mice that had been subjected to the WMT (FIG. 10).
Their brains were removed, and the hippocampi were isolated, weighed and frozen at −80° C. awaiting biochemical analysis.
Interleukin 6 (IL-6), a cytokine inflammatory marker, and the levels of the apoptosis markers Bcl2 and Bax proteins were measured in mouse hippocampi by the ELISA tests listed in Table 1 hereinbelow. Bcl2 is often referred to as an anti-apoptotic marker and Bax as a pro-apoptotic marker. Both hippocampi of 6-8 animals per condition were used. The tissues were homogenised after thawing in cell lysis buffer (1 mL, 3 IS007, Cloud-Clone) and sonicated on ice (2×10 s). After centrifugation (10,000 g, 5 min, 4° C.), the supernatants containing the markers to be measured were aliquoted and stored at −80° C. until the ELISA test was carried out according to the supplier's instructions. The results are expressed in ng of marker per mg of total protein and as a percentage of the control (mice not intoxicated with Aβ25-35 and not treated with the test compounds).

Row | Compound | restoring Alt % in the Y-maze test, effective doses [1] | improvement in cognitive impairment in the passive avoidance test, effective doses [2] | aggravating effect on amnestic symptoms in the passive avoidance test [2] | Bax/Bcl-2 ratio in the hippocampus [3] | Bax protein levels in the hippocampus [3]
1 | NC12CC3CC(C1)CC(CCF)(C3)C2 [FENM, 3-(2-fluoroethyl)adamantan-1-amine] | effective at all doses tested from 0.1 mg/Kg | effective at 0.1; 0.3 and 1 mg/Kg | does not exert an aggravating effect on amnestic symptoms | significantly decreased the Bax/BcI-2 ratio | significantly reduced
2 | CC12CC3CC(C)(C1)CC(N)(C3)C2 [memantine, 3,5-Dimethyl-1-adamantanamine, reference compound] | only effective at 0.3 mg/Kg | significant improvement in cognitive impairment by memantine was observed at the 0.3 mg/Kg memantine dose only | worsens the cognitive symptoms of intoxicated mice when injected at 10 mg/Kg | – | significantly reduced
